The record followed here is PMC6399351, “Cationic Intrinsically Disordered Antimicrobial Peptides (CIDAMPs) Represent a New Paradigm of Innate Defense with a Potential for Novel Anti-Infectives” (Scientific Reports, 2019).

≈ marks a conversion by molar mass, not a printed value. Where two headings read alike, the source gives them in different places. Peptide text beside a SMILES is read from it. * marks the point of attachment. Palmitoyl = CCCCCCCCCCCCCCCC(=O)*

The test system of experiment [1] is Candida albicans ATCC 90028. In words: CO-ADD MIC, antifungal assay (CLSI). Type of experiment: cell-based. The following applies: Yeast Nitrogen Base broth, 24 h 35 °C, by CO-ADD. Here is the method: (§1) Fungi strains were cultured for 3 days on Yeast Extract-Peptone Dextrose (YPD) agar at 30 °C. A yeast suspension of 1 × 10^6 to 5 × 10^6 cells/mL (as determined by OD530) was prepared from five colonies. These stock suspensions were diluted with Yeast Nitrogen Base (YNB) broth to a final concentration of 2.5 × 10^3 CFU/mL. […] Plates were covered and incubated at 35 °C for 24 h without shaking.

Experiment [2] relates to Cryptococcus neoformans ATCC 208821. Nature of the experiment: CO-ADD MIC, antifungal assay (CLSI). Type of experiment: cell-based. The following applies: Yeast Nitrogen Base broth, 24 h 35 °C, by CO-ADD. As to the method:
as §1

The test system of experiment [3] is Staphylococcus aureus ATCC 43300. As to conditions: MRSA; CLSI, Mueller–Hinton broth, 5 × 10^5 CFU/mL, 18 h 37 °C, by CO-ADD.
The test system of experiment [4] is Burkholderia cepacia ATCC 25416. As to conditions: CFU assay, 10 mM NaP.
A further experiment deals with E. coli ATCC 25922. Nature of the experiment: CO-ADD MIC, broth microdilution (CLSI). Type of experiment: cell-based, Escherichia coli. As to conditions: Mueller–Hinton broth, 5 × 10^5 CFU/mL, 18 h 37 °C, by CO-ADD. From the text: They were defined as the lowest peptide
Further details of the screening
In general terms: Dilution methods test growth across graded concentrations, often in twofold steps.

Experiment [5] has as its system Moraxella osloensis RV A2/2001. As to conditions: CFU assay, 10 mM NaP, pH 7.3, 1% TSB.
The test system of a further experiment is E. coli ATCC 11775. In words: CFU assay of antimicrobial activity. Type of experiment: cell-based, Escherichia coli. The following applies: 10 mM NaP. Summed up: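 Early log-phase bacteria grown in BHI were exposed at 10^4–10^5 CFU/ml for 2 h at ambient temperature. Two-fold serial dilutions spanned 300 or 150 µg/mL–19 ng/mL (synthetic peptides) or 100 µg/mL–25 ng/mL (recombinant HRNR fragments), and colonies were counted after 16 h at 37 °C.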

The subject of experiment [6] is Klebsiella pneumoniae ATCC 13883. The following applies: CFU assay, 10 mM NaP.
For experiment [7], the system named is Prevotella oralis ATCC 33321. Nature of the experiment: CFU assay of antimicrobial activity. It counts as cell-based. As to conditions: 10 mM NaP, pH 7.3, 1% TSB. Here is the method:
All purified peptides and recombinant proteins were applied using a colony forming unit (CFU) assay in different media. Bacteria were grown to early log-phase in BHI, washed either with 10 mM Na-P, pH 7.4/1% TSB or pH 5.5/1% TSB, or pH 5.5 without TSB or BHI, and adjusted to a concentration of 10^4–10^5 colony forming units (CFU)/ml. For cell number control, 100 µl aliquots were diluted 1:10, 1:100 and 1:1000 and plated in duplicates on BHI agar plates. To 100 µl aliquots of the bacteria, suspended in the respective medium (10 mM Na-P buffer pH 7,0–7,4/ 1% (w/v) TSB; 10 mM Na-P buffer pH 5,5/ 1% (w/v) TSB; 10 mM Na-P buffer pH 7,0–7,4/ 1% (w/v) TSB pH 7,0–7,4/ 0,25% (w/v) glucose; […], respectively), 10 µl of a solution of the peptide or protein (two-fold dilutions, from 300 µg/ml or 150 µg/ml down to 19 ng/ml), dissolved in 0.01% (v/v) acetic acid, were added.
Then bacteria were incubated for 2 h at ambient temperature, if not otherwise stated. 10 µl of 0.01% (v/v) acetic acid, added to 100 µl aliquots of the bacteria in the respective medium, served as negative control. From each test, 1:10 and 1:100 dilutions were generated and plated as duplicates of 100 µl aliquots on BHI agar plates. After 16 h incubation at 37 °C, CFU were counted using a colony counter (Bio Kobe, Japan) and expressed as mean of the duplicate estimation to achieve a complete dose-response curve. All experiments were performed at serial dilutions in a concentration range of 100 µg/mL −25 ng/mL for recombinant HRNR fragments and 300 or 150 µg/mL–19 ng/mL for synthetic peptides.

For `CCCCCCCCCCCCCCCC(=O)NCC(=O)N[C@@H](CCCNC(=N)N)C(=O)N[C@@H](CCCNC(=N)N)C(=O)NCC(=O)NCC(=O)N[C@@H](CCCNC(=N)N)C(=O)NCC(=O)NCC(=O)N[C@@H](CCCNC(=N)N)C(=O)NCC(=O)N[C@@H](CCCNC(=N)N)C(=O)NCC(=O)N[C@@H](CCCNC(=N)N)C(=O)O` [Pal-GR13] (Palmitoyl-GRRGGRGGRGRGR-OH), the “Minimal inhibitory concentration (MIC)” value worked out at 4 µg/mL (≈ 2.51 µM) in [1], 0.25 µg/mL (≈ 0.157 µM) in [2], 0.25 µg/mL (≈ 0.157 µM) in experiment [3] and 4 µg/mL (≈ 2.51 µM) with E. coli ATCC 25922. Further, the LD90 in [4] (pH 5.5, 0.25% glucose) was over 300 µg/mL; in experiment [4] (pH 7.3, 0.25% glucose) it was 4.7 µg/mL; in experiment [4] (pH 7.3, 1% TSB), 18.75 µg/mL; in experiment [5], 0.59 µg/mL; with E. coli ATCC 11775 (pH 5.5, 0.25% glucose) it was 0.15 µg/mL; in the experiment with E. coli ATCC 11775 (pH 7.3, 1% TSB), 1.18 µg/mL. Also, the LD90 in experiment [6] (pH 5.5, 0.25% glucose) was found to be 0.15 µg/mL; in experiment [6] (pH 7.3, 1% TSB), 1.18 µg/mL; in experiment [7], 9.38 µg/mL.
